Data: the supplement of paper PMC10307832

Assays:
Assay in all cases: relative viability (nuclei count vs DMSO), 5 days (fraction); higher = more cells survive
[1] = compound: CC1=C(C(=O)N2C=CSC2=N1)CCN3CCC(=C(C4=CC=CC=C4)C5=CC=C(C=C5)F)CC3 + C[C@@H](Oc1cc(-c2cnn(C3CCNCC3)c2)cnc1N)c1c(Cl)ccc(F)c1Cl [Crizotinib] (partner 1 µM)
Summary of the method: (§1)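 Lung cancer cell lines were pin-tool dosed in 1536-well plates on the day after seeding, with either a lone drug or a fixed anchor-drug dose plus five library-drug doses (not always all listed) in √10 steps. Nuclei were counted on 4× images after 5 days. Relative viability is the ratio of treated-well to vehicle-well nuclei counts, with each value a median of duplicate plates.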

[2] = compound: CC1=C(C(=O)N2C=CSC2=N1)CCN3CCC(=C(C4=CC=CC=C4)C5=CC=C(C=C5)F)CC3 + N=C(N)NC(=N)NCCc1ccccc1 [Phenformin] (partner 250 µM)
Summary of the method: as §1

[3] = compound: CC1=C(C(=O)N2C=CSC2=N1)CCN3CCC(=C(C4=CC=CC=C4)C5=CC=C(C=C5)F)CC3 + CC1(C)CCC(c2ccc(Cl)cc2)=C(CN2CCN(c3ccc(C(=O)NS(=O)(=O)c4ccc(N[C@H](CCN5CCOCC5)CSc5ccccc5)c(S(=O)(=O)C(F)(F)F)c4)cc3)CC2)C1 [Navitoclax] (partner 0.5 µM)
Summary of the method: as §1

[4] = compound: CC1=C(C(=O)N2C=CSC2=N1)CCN3CCC(=C(C4=CC=CC=C4)C5=CC=C(C=C5)F)CC3 + Nc1ncn([C@H]2C[C@H](O)[C@@H](CO)O2)c(=O)n1 [Decitabine] (partner 2 µM)
Summary of the method: as §1

| Cell Line | relative viability ([1]; first compound 0.08 µM) | relative viability ([1]; first compound 0.253 µM) | relative viability ([1]; first compound 0.8 µM) | relative viability ([1]; first compound 2.53 µM) | relative viability ([1]; first compound 8 µM) | relative viability ([2]; first compound 0.08 µM) | relative viability ([2]; first compound 0.253 µM) | relative viability ([2]; first compound 0.8 µM) | relative viability ([2]; first compound 2.53 µM) | relative viability ([2]; first compound 8 µM) | relative viability ([3]; first compound 0.08 µM) | relative viability ([3]; first compound 0.253 µM) | relative viability ([3]; first compound 0.8 µM) | relative viability ([3]; first compound 2.53 µM) | relative viability ([3]; first compound 8 µM) | relative viability ([4]; first compound 0.08 µM) | relative viability ([4]; first compound 0.8 µM) | relative viability ([4]; first compound 2.53 µM) | relative viability ([4]; first compound 8 µM) | relative viability ([4]; first compound 0.253 µM) |
| --- | --- | --- | --- | --- | --- | --- | --- | --- | --- | --- | --- | --- | --- | --- | --- | --- | --- | --- | --- | --- |
| PC-3 [JPC-3] | 1.02 | 0.984 | 1.15 | 1.1 | 0.919 | 0.49 | 0.451 | 0.454 | 0.525 | 0.495 | 0.789 | 0.657 | 0.845 | 0.921 | 0.803 | 0.826 | 0.932 | 0.845 | 0.846 |  |
| PC-14 | 0.919 | 0.907 | 0.875 | 1.13 | 0.716 | 0.624 | 0.558 | 0.518 | 0.661 | 0.296 | 0.655 | 0.974 | 1.05 | 1.09 | 0.449 | 0.205 | 0.201 | 0.237 | 0.176 | 0.241 |
| RERF-LC-KJ | 0.789 | 0.851 | 0.775 | 0.835 | 0.795 | 0.345 | 0.427 | 0.414 | 0.534 | 0.289 | 0.933 | 0.769 | 0.806 | 1 | 0.681 | 0.715 | 0.647 | 0.62 | 0.572 | 0.746 |
| SK-LU-1 | 1.03 | 0.849 | 0.801 | 0.979 | 0.698 | 0.672 | 0.475 | 0.585 | 0.576 | 0.42 | 0.586 | 0.899 | 0.941 | 0.913 | 0.371 | 0.593 | 0.709 | 0.615 | 0.535 | 0.555 |
| SK-MES-1 | 1.11 | 0.969 | 0.975 | 1.1 | 0.916 | 0.608 | 0.693 | 0.699 | 0.73 | 0.522 | 1.36 | 1.21 | 1.41 | 1.47 | 0.86 | 0.572 | 0.375 | 0.461 | 0.353 | 0.391 |
| SW 1573 | 0.74 | 0.919 | 0.819 | 0.714 | 0.726 |  | 0.343 | 0.4 | 0.377 | 0.24 | 0.777 | 1.02 | 1.11 | 1.15 | 0.409 | 0.453 | 0.505 | 0.633 | 0.447 | 0.524 |
| UMC-11 | 0.636 | 0.597 | 0.619 | 0.48 | 0.839 | 0.366 | 0.326 | 0.321 | 0.338 | 0.255 | 0.288 | 0.253 | 0.294 | 0.309 | 0.276 | 0.591 | 0.58 | 0.633 | 0.53 | 0.714 |
